In ChEMBL document CHEMBL3259629, “Discovery and optimization of piperidyl-1,2,3-triazole ureas as potent, selective, and in vivo-active inhibitors of α/β-hydrolase domain containing 6 (ABHD6)” (J Med Chem, 2013):

Assays:
Conditions in all cases: Neuro2a, 3 nM
[1] = target: T1, sn-1-specific diacylglycerol lipase ABHD11 (Mus musculus) (UniProt Q8K4F5)
T1 sequence (whole entry): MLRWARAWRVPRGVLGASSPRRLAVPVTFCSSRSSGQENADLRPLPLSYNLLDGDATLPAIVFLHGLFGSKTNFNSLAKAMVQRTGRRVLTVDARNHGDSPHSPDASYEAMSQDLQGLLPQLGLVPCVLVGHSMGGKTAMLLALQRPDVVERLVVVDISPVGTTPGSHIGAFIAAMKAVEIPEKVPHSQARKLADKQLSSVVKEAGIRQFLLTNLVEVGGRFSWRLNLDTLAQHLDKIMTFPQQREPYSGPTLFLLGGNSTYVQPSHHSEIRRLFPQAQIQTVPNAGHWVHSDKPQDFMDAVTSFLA
Description: Inhibition of Abhd11 in mouse Neuro2a cells at 3 nM after 4 hrs by ABPP-SILAC assay

[2] = target: T2, Lon protease homolog, mitochondrial (Mus musculus) (UniProt Q8CGK3)
T2 sequence (whole entry): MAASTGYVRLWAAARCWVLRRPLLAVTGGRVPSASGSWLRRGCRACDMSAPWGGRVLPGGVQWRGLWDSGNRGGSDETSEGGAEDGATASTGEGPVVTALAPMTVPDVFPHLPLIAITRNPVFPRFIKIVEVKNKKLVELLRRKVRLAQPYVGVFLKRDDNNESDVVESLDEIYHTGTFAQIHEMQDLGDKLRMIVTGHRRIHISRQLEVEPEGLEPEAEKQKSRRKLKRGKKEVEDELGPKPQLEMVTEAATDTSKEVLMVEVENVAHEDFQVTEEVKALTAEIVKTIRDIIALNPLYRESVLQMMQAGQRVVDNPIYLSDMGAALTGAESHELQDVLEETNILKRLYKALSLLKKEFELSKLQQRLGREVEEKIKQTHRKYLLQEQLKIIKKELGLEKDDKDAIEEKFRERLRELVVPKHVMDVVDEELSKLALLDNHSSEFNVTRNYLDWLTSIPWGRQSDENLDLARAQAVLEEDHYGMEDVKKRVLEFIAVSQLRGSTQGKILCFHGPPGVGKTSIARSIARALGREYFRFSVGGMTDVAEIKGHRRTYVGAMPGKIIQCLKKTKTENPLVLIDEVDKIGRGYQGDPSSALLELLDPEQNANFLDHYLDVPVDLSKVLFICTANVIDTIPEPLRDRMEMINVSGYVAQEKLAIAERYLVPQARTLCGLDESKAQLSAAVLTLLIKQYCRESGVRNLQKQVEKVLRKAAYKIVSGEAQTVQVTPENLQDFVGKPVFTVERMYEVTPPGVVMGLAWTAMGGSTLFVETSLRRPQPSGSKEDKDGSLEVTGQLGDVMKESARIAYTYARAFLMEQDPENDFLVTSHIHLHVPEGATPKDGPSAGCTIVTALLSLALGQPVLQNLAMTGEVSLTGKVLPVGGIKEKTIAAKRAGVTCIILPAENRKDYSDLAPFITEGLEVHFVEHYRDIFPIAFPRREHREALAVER
Description: Inhibition of Lonp1 in mouse Neuro2a cells at 3 nM after 4 hrs by ABPP-SILAC assay

[3] = target: T3, Calcium-independent phospholipase A2-gamma (Mus musculus) (UniProt Q8K1N1)
T3 sequence (whole entry): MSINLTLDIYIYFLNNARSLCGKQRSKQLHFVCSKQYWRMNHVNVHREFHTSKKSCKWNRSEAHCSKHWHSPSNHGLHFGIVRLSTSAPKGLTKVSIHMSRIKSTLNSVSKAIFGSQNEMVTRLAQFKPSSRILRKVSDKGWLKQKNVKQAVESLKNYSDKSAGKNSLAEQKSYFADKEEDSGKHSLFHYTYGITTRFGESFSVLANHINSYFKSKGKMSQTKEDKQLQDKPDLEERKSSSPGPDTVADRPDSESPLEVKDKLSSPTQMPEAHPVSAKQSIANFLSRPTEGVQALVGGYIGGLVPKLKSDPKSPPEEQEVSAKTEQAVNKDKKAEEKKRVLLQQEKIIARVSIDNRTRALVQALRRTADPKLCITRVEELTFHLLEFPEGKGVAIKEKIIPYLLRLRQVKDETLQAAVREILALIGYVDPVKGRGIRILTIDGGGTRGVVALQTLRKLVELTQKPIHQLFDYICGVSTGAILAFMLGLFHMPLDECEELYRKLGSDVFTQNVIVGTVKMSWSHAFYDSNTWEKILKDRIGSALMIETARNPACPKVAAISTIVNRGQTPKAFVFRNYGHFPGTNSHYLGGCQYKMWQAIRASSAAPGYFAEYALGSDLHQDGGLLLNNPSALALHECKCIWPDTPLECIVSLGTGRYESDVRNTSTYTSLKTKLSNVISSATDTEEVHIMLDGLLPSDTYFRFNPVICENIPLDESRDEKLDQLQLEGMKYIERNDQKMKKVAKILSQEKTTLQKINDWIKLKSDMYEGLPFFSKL
Description: Inhibition of Pnpla8 in mouse Neuro2a cells at 3 nM after 4 hrs by ABPP-SILAC assay

[4] = target: T4, GPI inositol-deacylase (Mus musculus) (UniProt Q3UUQ7)
T4 sequence (whole entry): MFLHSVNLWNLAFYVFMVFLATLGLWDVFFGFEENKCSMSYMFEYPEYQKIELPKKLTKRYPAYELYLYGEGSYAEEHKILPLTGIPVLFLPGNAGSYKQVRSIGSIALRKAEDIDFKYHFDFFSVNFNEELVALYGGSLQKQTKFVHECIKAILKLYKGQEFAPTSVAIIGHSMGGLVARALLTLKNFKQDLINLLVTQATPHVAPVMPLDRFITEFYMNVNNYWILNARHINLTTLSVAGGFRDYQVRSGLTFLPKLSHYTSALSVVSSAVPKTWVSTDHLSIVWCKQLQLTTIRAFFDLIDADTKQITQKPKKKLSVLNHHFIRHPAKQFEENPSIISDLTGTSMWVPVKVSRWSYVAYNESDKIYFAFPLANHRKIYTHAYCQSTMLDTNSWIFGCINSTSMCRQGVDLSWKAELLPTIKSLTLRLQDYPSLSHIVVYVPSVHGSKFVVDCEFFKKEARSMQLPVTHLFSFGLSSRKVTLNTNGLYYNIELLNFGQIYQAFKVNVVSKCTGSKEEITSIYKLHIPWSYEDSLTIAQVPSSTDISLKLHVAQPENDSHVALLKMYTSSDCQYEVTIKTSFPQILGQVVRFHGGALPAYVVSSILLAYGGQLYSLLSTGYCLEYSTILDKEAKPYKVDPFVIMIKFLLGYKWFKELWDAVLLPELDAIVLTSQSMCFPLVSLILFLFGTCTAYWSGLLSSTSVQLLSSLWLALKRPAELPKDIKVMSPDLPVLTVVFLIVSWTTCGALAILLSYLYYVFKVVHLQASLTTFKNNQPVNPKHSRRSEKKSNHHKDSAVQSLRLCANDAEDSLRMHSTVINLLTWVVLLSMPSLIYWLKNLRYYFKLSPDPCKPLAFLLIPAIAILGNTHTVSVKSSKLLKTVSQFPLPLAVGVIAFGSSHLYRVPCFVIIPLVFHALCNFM
Description: Inhibition of Pgap1 in mouse Neuro2a cells at 3 nM after 4 hrs by ABPP-SILAC assay

Measured: inhibition

O=C(N1CCCCC1c1ccccc1)n1cc(-c2ccc(-c3cccc(CO)c3)cc2)nn1 (racemic)
< 50%: [1] | [2] | [3] | [4]

O=C(c1cccc(-c2ccc(-c3cn(C(=O)N4CCCCC4c4ccccc4)nn3)cc2)c1)N1CCCCC1 (racemic)
< 50%: [1] | [2] | [3] | [4]

O=C(O)c1cccc(-c2ccc(-c3cn(C(=O)N4CCCCC4Cc4ccccc4)nn3)cc2)c1 (racemic)
< 50%: [1] | [2] | [3] | [4]
